Measured values published in patent publication US6620785B2, “Treatment of Mycobacterial diseases by administration of bactericidal/permeability-increasing protein products” (Xoma Corporation, priority 1993, dated 2003).
Like-named read-outs stand apart in the source and are kept apart here.

What was measured:
M. tuberculosis = experiment: Bactec growth index assay of M. tuberculosis with rBPI23 and antibiotics (Example 5); format: cell-based
[1] = tested on: M. tuberculosis (strain H37Ra) induced production of TNF by monocytes/macrophages; format: cell-based, human; details: second test, 4 μg/ml

NNC(=O)c1ccncc1 [INH, isoniazid]
growth index (M. tuberculosis; INH alone, no BPI protein product, 0.006-0.05 μg/ml): increases generally began earlier and rose more steeply at lower doses than at higher doses

CO[C@H]1/C=C/O[C@@]2(C)Oc3c(C)c(O)c4c(O)c(c(/C=N/N5CCN(C)CC5)c(O)c4c3C2=O)NC(=O)/C(C)=C\C=C\[C@H](C)[C@H](O)[C@@H](C)[C@@H](O)[C@@H](C)[C@H](OC(C)=O)[C@@H]1C [RMP, rifampin]
growth index (M. tuberculosis; RMP 0.5 and 1.0 μg/ml, entire test period (day 2 to 18)): essentially no increase in growth index

B1: BPI holoprotein: recombinant human bactericidal/permeability-increasing holoprotein, SEQ ID NOS:1 and 2 (protein)
chain: MRENMARGPCNAPRWVSLMVLVAIGTAVTAAVNPGVVVRISQKGLDYASQQGTAALQKELKRIKIPDYSDSFKIKHLGKGHYSFYSMDIREFQLPSSQISMVPNVGLKFSISNANIKISGKWKAQKRFLKMSGNFDLSIEGMSISADLKLGSNPTSGKPTITCSSCSSHINSVHVHISKSKVGWLIQLFHKKIESALRNKMNSQVCEKVTNSVSSKLQPYFQTLPVMTKIDSVAGINYGLVAPPATTAETLDVQMKGEFYSENHHNPPPFAPPVMEFPAAHDRMVYLGLSDYFFNTAGLVYQEAGVLKMTLRDDMIPKESKFRLTTKFFGTFLPEVAKKFPNMKIQIHVSASTPPHLSVQPTGLTFYPAVDVQAFAVLPNSSLASLFLIGMHTTGSMEVSAESNRLVGELKLDRLLLELKHSNIGPFPVELLQDIMNYIVPILVLPRVNEKLQKGFPLPTPARVQLYNVVLQPHQNFLLFGADVVYK
inhibition of TNF production ([1]; 3×10^5 to 1×10^7 organisms): Lesser degrees of inhibition
inhibition of TNF production ([1]; highest concentration of organisms, one duplicate test): no inhibition at all
